# According to BindingDB's records for doi:10.1016/j.bioorg.2016.01.004 (University of Karachi, 2016):
# Experiments:
# [1] = biological target: Acetylcholinesterase (Electrophorus electricus, UniProt O42275); experiment: AChE and BChE Inhibition Activity; conditions: pH 8
# Procedure: (§1) Inhibitory activities of AChE and BChE were evaluated by using the Ellman's method [34]. […] For initial screening each compound was dissolved in DMSO (end concentration of DMSO was less than 1% in assay) and tested at a final concentration of 0.5 mM. The compounds with considerable inhibition (more than 50%) were subjected to further analysis by making their 8 to 10 serial dilutions in assay buffer (50 mM Tris-HCl, 0.1 M NaCl and 0.02 M MgCl2, pH 8.0). Reaction mixture comprised of 20 µL assay buffer, 10 µL of test compound, 10 µL of 0.031 U/mL of enzyme (0.5 and 3.4 U/mg of AChE or BuChE respectively). This mixture was incubated at 25 °C for 10 min. After this preincubation, enzymatic reaction was started by addition of 10 µL of 1 mM acetylethiocholine iodide or butyrylthiocholine chloride (depending on the enzyme) and the mixture was incubated again for 15 min. The amount of enzymatic product was esti
# [2] = biological target: Carboxylic ester hydrolase (Equus caballus, UniProt Q9N1N9); experiment: AChE and BChE Inhibition Activity; conditions: pH 8
# Procedure: as §1
# Carboxylic ester hydrolase, sequence (Q9N1N9 whole entry): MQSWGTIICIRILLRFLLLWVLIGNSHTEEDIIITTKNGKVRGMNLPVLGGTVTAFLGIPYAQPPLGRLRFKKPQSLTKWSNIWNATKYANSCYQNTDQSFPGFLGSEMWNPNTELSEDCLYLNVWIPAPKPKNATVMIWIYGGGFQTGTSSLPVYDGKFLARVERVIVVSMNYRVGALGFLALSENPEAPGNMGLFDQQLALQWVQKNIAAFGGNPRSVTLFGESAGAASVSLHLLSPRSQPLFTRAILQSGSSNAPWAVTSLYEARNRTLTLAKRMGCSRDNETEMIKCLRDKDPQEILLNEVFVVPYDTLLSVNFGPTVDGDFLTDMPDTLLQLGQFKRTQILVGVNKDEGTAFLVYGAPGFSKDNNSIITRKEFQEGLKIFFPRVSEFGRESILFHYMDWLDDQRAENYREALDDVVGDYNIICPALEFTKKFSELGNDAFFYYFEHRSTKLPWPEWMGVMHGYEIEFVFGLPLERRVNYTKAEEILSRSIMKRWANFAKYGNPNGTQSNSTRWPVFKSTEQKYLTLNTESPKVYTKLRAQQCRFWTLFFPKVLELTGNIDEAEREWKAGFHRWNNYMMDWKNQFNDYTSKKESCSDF
# Acetylcholinesterase, sequence (O42275 whole entry): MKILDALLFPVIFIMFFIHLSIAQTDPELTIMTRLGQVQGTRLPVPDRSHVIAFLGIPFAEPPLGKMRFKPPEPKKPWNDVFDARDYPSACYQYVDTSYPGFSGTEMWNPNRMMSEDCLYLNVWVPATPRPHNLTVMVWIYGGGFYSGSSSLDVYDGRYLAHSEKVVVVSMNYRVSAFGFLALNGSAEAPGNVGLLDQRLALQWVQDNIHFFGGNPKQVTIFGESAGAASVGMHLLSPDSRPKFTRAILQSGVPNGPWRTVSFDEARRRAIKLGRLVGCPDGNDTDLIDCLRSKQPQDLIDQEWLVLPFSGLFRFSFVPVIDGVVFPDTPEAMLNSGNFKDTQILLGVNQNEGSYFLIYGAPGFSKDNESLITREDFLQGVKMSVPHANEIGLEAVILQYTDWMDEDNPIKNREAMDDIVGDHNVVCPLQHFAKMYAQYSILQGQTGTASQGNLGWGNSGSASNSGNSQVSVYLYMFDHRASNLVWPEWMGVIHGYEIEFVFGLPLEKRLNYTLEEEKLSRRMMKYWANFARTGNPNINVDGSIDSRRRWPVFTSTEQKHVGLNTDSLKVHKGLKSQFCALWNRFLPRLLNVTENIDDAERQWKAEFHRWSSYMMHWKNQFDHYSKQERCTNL
SMILES,IC50 [1],IC50 [2]
"COc1ccccc1C1=C(C#N)C(=C(C#N)c2nnn[nH]2)NC(C)(c2ccccc2OC)C1 (centres undefined) [2-(Cyano(1H-tetrazol-5-yl)methylene)-6-methyl-4,6-bis(2'/2''-methoxyphenyl)-1,2,5,6-tetrahydronicotinonitrile (2g)]",20.3 µM,0.29 µM
"CC1(c2cccc(Cl)c2)CC(c2cccc(Cl)c2)=C(C#N)C(=C(C#N)c2nnn[nH]2)N1 (centres undefined) [2-(Cyano(1H-tetrazol-5-yl)methylene)-6-methyl-4,6-bis(3'/3''-chlorophenyl)-1,2,5,6-tetrahydronicotinonitrile (2e)]",2.32 µM,2.78 µM
"COc1cccc(C2=C(C#N)C(=C(C#N)c3nnn[nH]3)NC(C)(c3cccc(OC)c3)C2)c1 (centres undefined) [2-(Cyano(1H-tetrazol-5-yl)methylene)-6-methyl-4,6-bis(3'/3''-methoxyphenyl)-1,2,5,6-tetrahydronicotinonitrile (2f)]",5.11 µM,39.2 µM
"Cc1cccc(C2=C(C#N)C(=C(C#N)c3nnn[nH]3)NC(C)(c3cccc(C)c3)C2)c1 (centres undefined) [2-(Cyano(1H-tetrazol-5-yl)methylene)-6-methyl-4,6-bis(3'/3''-methylphenyl)-1,2,5,6-tetrahydronicotinonitrile (2c)]",20.8 µM,62.2 µM
"CC1(c2ccc(F)cc2)CC(c2ccc(F)cc2)=C(C#N)C(=C(C#N)c2nnn[nH]2)N1 (centres undefined) [2-(Cyano(1H-tetrazol-5-yl)methylene)-6-methyl-4,6-bis(4'/4''-fluorophenyl)-1,2,5,6-tetrahydronicotinonitrile (2d)]",2.01 µM,38.8 µM
"CC1(c2ccc(O)cc2)CC(c2ccc(O)cc2)=C(C#N)C(=C(C#N)c2nnn[nH]2)N1 (centres undefined) [2-(Cyano(1H-tetrazol-5-yl)methylene)-6-methyl-4,6-bis(4'/4''-hydroxyphenyl)-1,2,5,6-tetrahydronicotinonitrile (2h)]",7.42 µM,2.45 µM
"Cc1ccc(C2=C(C#N)C(=C(C#N)c3nnn[nH]3)NC(C)(c3ccc(C)cc3)C2)cc1 (centres undefined) [2-(Cyano(1H-tetrazol-5-yl)methylene)-6-methyl-4,6-bis(4'/4''-methylphenyl)-1,2,5,6-tetrahydronicotinonitrile (2b)]",4.45 µM,5.87 µM
"CC1(c2ccccc2)CC(c2ccccc2)=C(C#N)C(=C(C#N)c2nnn[nH]2)N1 (centres undefined) [2-(Cyano(1H-tetrazol-5-yl)methylene)-6-methyl-4,6-bis(phenyl)-1,2,5,6-tetrahydronicotinonitrile (2a)]",7.02 µM,22.1 µM
"CC1(c2ccccc2)CC(c2ccccc2)=C(C#N)C(=C(C#N)C#N)N1 (centres undefined) [2-Dicyanomethylene-6-methyl-4,6-bis(phenyl)-1,2,5,6-tetrahydronicotinonitrile (5a)]",20.3 µM,48.1 µM
"CC1(c2cccc(F)c2)CC(c2cccc(F)c2)=C(C#N)C(=C(C#N)C#N)N1 (centres undefined) [2-[3-cyano-4,6-bis(3-fluorophenyl)-6-methyl-1,2,5,6-tetrahydropyridin-2-ylidene]propanedinitrile (5f)]",8.01 µM,68.8 µM
"COc1cccc(C2=C(C#N)C(=C(C#N)C#N)NC(C)(c3cccc(OC)c3)C2)c1 (centres undefined) [2-[3-cyano-4,6-bis(3-methoxyphenyl)-6-methyl-1,2,5,6-tetrahydropyridin-2-ylidene]propanedinitrile (5g)]",1.56 µM,48.2 µM
"CC1(c2ccc(F)cc2)CC(c2ccc(F)cc2)=C(C#N)C(=C(C#N)C#N)N1 (centres undefined) [2-[3-cyano-4,6-bis(4-fluorophenyl)-6-methyl-1,2,5,6-tetrahydropyridin-2-ylidene]propanedinitrile (5d)]",11.9 µM,55.2 µM
"CC1(c2ccc(O)cc2)CC(c2ccc(O)cc2)=C(C#N)C(=C(C#N)C#N)N1 (centres undefined) [2-[3-cyano-4,6-bis(4-hydroxyphenyl)-6-methyl-1,2,5,6-tetrahydropyridin-2-ylidene]propanedinitrile (5h)]",5.38 µM,42.2 µM
"CC1(c2ccc(I)cc2)CC(c2ccc(I)cc2)=C(C#N)C(=C(C#N)C#N)N1 (centres undefined) [2-[3-cyano-4,6-bis(4-iodophenyl)-6-methyl-1,2,5,6-tetrahydropyridin-2-ylidene]propanedinitrile (5e)]",11.2 µM,45.3 µM
"Cc1cccc(C2=C(C#N)C(=C(C#N)C#N)NC(C)(c3cccc(C)c3)C2)c1 (centres undefined) [2-[3-cyano-6-methyl-4,6-bis(3-methylphenyl)-1,2,5,6-tetrahydropyridin-2-ylidene]propanedinitrile (5c)]",5.21 µM,35.9 µM
"Cc1ccc(C2=C(C#N)C(=C(C#N)C#N)NC(C)(c3ccc(C)cc3)C2)cc1 (centres undefined) [2-[3-cyano-6-methyl-4,6-bis(4-methylphenyl)-1,2,5,6-tetrahydropyridin-2-ylidene]propanedinitrile (5b)]",16.9 µM,36.5 µM
CN(C)C(=O)Oc1cccc([N+](C)(C)C)c1 [m-Trimethylammoniumphenyldimethylcarbamate],19.3 µM,43.2 µM
